Values joined by “and” are separate entries in the source; they are usually repeats but may differ in a detail not shown here. Equal entries are not always repeated. “Also recorded” adds a separate entry of the source.

The values that follow come from paper PMC4004266, “Understanding the Structural Requirements for Activators of the Kef Bacterial Potassium Efflux System” (Biochemistry, 2014).

Assay [1] addresses T1, SdKefQCTD (Shewanella denitrificans, UniProt Q12SB3). The experiment in a line: Isothermal titration calorimetry (ITC). It is filed as binding, Shewanella denitrificans OS217. Particulars: for no. of sites (n): sites per subunit. A general note: Isothermal titration calorimetry measures the heat released or taken up as one component is titrated into another.
Assay [2] has as its target T1, SdKefQCTD. The assay is described as follows: Quantitative fluorescence competition experiment using DNGSH as probe (emission peak). It is filed as binding, Shewanella denitrificans OS217. Particulars: for no. of sites (n): competition with DNGSH, sites per subunit.
In assay [3] the target is T1, SdKefQCTD. The experiment in a line: Qualitative fluorescence competition assay with DNGSH (FB:FL ratio). The assay is classed as binding, Shewanella denitrificans OS217. To be noted: 1 mM competing ligand, 6 μM SdKefQCTD, 5 μM DNGSH, 525 nm.
Assay [4] deals with T1, SdKefQCTD. The experiment in a line: Differential scanning fluorimetry (DSF). It is filed as binding, Shewanella denitrificans OS217. Particulars: 1 mM ligand, relative to protein alone. (In general: Differential scanning fluorimetry follows unfolding on heating by fluorescence.)
A further assay has as its system SdKef. The assay is described as follows: Whole cell potassium efflux assay. The assay is classed as cell-based, Shewanella denitrificans OS217. Particulars: for K+ efflux (activation of Kef): E. coli MJF335 transformed with wild-type SdKef, grown with GSH, electrophile 0.5 mM. The method, then:
Potassium efflux experiments were performed as described previously.[7] Potassium efflux was measured, using an ion selective potassium electrode (ELIT 8031, Nico2000) and a lithium acetate reference electrode (ELIT 003n) with a four-channel ion analyzer (ELIT4), in 2 s intervals. Freshly transformed cells [either E. coli MJF335 cells lacking KefB, KefC, and GshA or MJF645 cells (lacking KefF and KefG in addition to KefB, KefC, and GshA)] were cultured in K115 minimal medium, containing 1 mM GSH, at 37 °C to an OD650 of ∼0.8–1.[11] The cells were filtered and washed with K10 buffer before being suspended in 5 mL of potassium-free K0 buffer. The cells were added to 30 mL of K0 medium in a stirred vessel held at 37 °C with equilibrated electrodes inserted. After 5 min, the electrophile was added to a final concentration of 0.5 mM [except for methylglyoxal (MG), which was added at a concentration of 0.8 mM[6]]. Rate constants were obtained by fitting exponentials to the change in potassium concentration after addition of the electrophile using Origin version 8.0 (Originlab).[7]

In assay [5] the target is T1, SdKefQCTD. The experiment in a line: Direct titration of DNGSH, fluorescence emission peak position (λmax). The assay is classed as binding, Shewanella denitrificans OS217. The method, then: (§1) Measurements were performed in buffer C, using a 100 μL cuvette with 3 mm excitation and emission path lengths (Hellma GmbH & Co.) at 20 °C and an Edinburgh Instruments FLS920 spectrometer. Samples containing SdKefQCTD and DNGSH were excited at 340 nm, and emission spectra were measured from 395 to 670 nm. The steady state fluorescence anisotropy was measured with excitation at 340 nm and emission between 540 and 560 nm. Competition experiments were performed using samples pretreated with excess DNGSH, at a 2× protein concentration, and titrated with the ligand under study.
The data were fit using a standard saturation isotherm (see the Supporting Information for further information). For DNGSH fluorescence, λL was measured directly and found to be 572.5 nm. Inverse titrations with high SdKefQCTD concentrations allowed a good estimation of the emission maximum for the bound form (λML) as 530 nm with a quantum yield (Q) of 4. These three parameters were kept fixed during the fitting while Kd and n were optimized. […]
(§2) Analysis of ligand binding by fluorescence spectroscopy. […]
(§3) The conservation of mass for SdKefQCTD is given by n[M]0 = [M] + [ML] where the total concentration of SdKefQCTD subunits is [M]0, n is the number of active binding sites per M, [L]0 is the total concentration of ligand and the concentration of free ligand is [L]. […] If these expressions are substituted into equation 1, a quadratic equation for the protein-ligand complex [ML] is obtained that can be solved for [ML] and expressed as the fraction of bound ligand, fB (equation 2). […]
Two fluorescence parameters were used to obtain fB from experimental data. The peak position in the emission spectrum, λmax, was obtained by fitting a skewed Gaussian to the experimental spectra as described earlier (1). λmax was used as it was less easily disturbed than fluorescence intensity. Secondly, steady state fluorescence anisotropy, robs, was used. […]
sums depending on the fluorescence intensity of the bound and free ligand, IML and […]

The subject of another assay is SdKefQCTD Q419K mutant. The experiment in a line: DNGSH titration to Q419K mutant (background binding), emission peak. Set-up: species or system Shewanella denitrificans OS217. Particulars: titration of DNGSH to 7 μM SdKefQCTD Q419K.
Assay [6] deals with T1, SdKefQCTD. The experiment in a line: Steady state fluorescence anisotropy titration of DNGSH. It is filed as binding, Shewanella denitrificans OS217. The method, then: as §1
The data were fit using a standard saturation isotherm (see the Supporting Information for further information). For DNGSH fluorescence, λL was measured directly and found to be 572.5 nm. […]
as §2, §3
Two fluorescence parameters were used to obtain fB from experimental data. […]
(In general: In fluorescence polarisation assays a small probe gives low polarisation when free and higher when bound to something large.)

Assay [7] has as its target SdKefQCTD (soluble construct of the cytosolic regulatory domain of Kef from Shewanella denitrificans OS217, including the Q-linker) (Shewanella denitrificans OS217). The assay is described as follows: static multiangle light scattering; purified SdKefQCTD in solution; unpublished observations of the authors; 52.0 ± 2.5 kDa particles against 26.4 kDa per monomer.
[8] abbreviates: ITC, 25 °C, one-site model, read-out: Kd.
The mark [9] stands for this setting: emission peak, competition with DNGSH (Kd 6 μM used for DNGSH).

T1 sequence (Q12SB3 entry or part of it): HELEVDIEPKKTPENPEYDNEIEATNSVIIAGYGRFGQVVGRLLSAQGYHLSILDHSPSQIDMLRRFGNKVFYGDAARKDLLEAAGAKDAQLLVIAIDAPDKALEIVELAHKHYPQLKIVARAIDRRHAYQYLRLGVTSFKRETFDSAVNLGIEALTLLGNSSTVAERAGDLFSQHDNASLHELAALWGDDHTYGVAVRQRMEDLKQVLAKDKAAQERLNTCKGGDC

As to `CC(C)(C)N1C(=O)CC(SCC(NC(=O)CCC(N)C(=O)O)C(=O)NCC(=O)O)C1=O` (stereo not shown) [Compound 5, N-tert-butylsuccinimido-S-glutathione], the Kd – broadly, the concentration at which binding is half-saturated – on SdKefQCTD [1] (setting [8]) was 6.7 ± 0.27 µM; at SdKefQCTD [2] (setting [9]), 0.4 ± 0.2 µM. Moreover, the “no. of sites (n)” value on SdKefQCTD [1] (ITC) is 0.41 ± 0.04; on SdKefQCTD [2] (emission peak) it was 0.7 ± 0.2. Also, the “DNGSHbound:DNGSHligand ratio of fluorescence (FB:FL), Kef binding” value (“DNGSHbound:DNGSHligand ratio” below) on SdKefQCTD [3] was “greatest Kef affinity”. Moreover, the “change in protein melting temperature (ΔTm)” value on SdKefQCTD [4] is reported as “greatest ΔTm”.

Turning to `N[C@@H](CCC(=O)N[C@@H](CSC1CC(=O)CC1=O)C(=O)NCC(=O)O)C(=O)O` (stereo partly shown) [Compound 8], at SdKefQCTD [3], the “DNGSHbound:DNGSHligand ratio” value is on record as “reduced binding affinity for Kef”.

`N[C@@H](CCC(=O)N[C@@H](CSC1CCCC1=O)C(=O)NCC(=O)O)C(=O)O` (stereo partly shown) [Compound 9]: the “K+ efflux (activation of Kef)” value in the assay on SdKef was “no activation of K^+ efflux”. In addition, the “DNGSHbound:DNGSHligand ratio” value on SdKefQCTD [3] is recorded as “reduced binding affinity for Kef”.

The compound `CCCCCC(=O)CCSC[C@H](NC(=O)CC[C@H](N)C(=O)O)C(=O)NCC(=O)O` [Compound 12] yielded a Kd at SdKefQCTD [2] (setting [9]) of 4.4 ± 0.5 µM. In addition, at SdKefQCTD [2] (emission peak), the “no. of sites (n)” value was 0.81 ± 0.05.

On to `O=C1C=CC(=O)N1Cc1ccccc1` [Compound 16], for which, in the assay with SdKef, the “K+ efflux (activation of Kef)” value is reported as “caused significant K^+ release”.

`O=C1C=CC(=O)N1C1CCCCC1` [Compound 17, N-cyclohexylmaleimide]: the “K+ efflux (activation of Kef)” value in the assay on SdKef was “causes rapid K^+ efflux”.

For the compound `C=CC(=O)CCCCC` [Compound 22, 1-octen-3-one], the “K+ efflux (activation of Kef)” value in the assay on SdKef is “less effective at causing K^+ release; also recorded: causes little K^+ efflux”.

In the case of `CN(C)c1cccc2c(S(=O)(=O)NCCCSC[C@H](NC(=O)CC[C@H](N)C(=O)O)C(=O)NCC(=O)O)cccc12` [DNGSH, S-{[5-(dimethylamino)naphthalen-1-yl]sulfonylaminopropyl} glutathione], the Kd on SdKefQCTD [5] stood at 6 ± 2 µM; on SdKefQCTD [1] it was 19 ± 6 µM; on SdKefQCTD [6] it was 8 ± 2 µM. Also, on SdKefQCTD [5] (DNGSH binding), the “Hill coefficient (nH)” value was 1. The “no. of sites (n)” value on SdKefQCTD [5] (emission peak, active binding sites per subunit) was 0.6 ± 0.2; on SdKefQCTD [1] (ITC) it was 0.7 ± 0.1 and 0.7 ± 0.2; at SdKefQCTD [6] (fluorescence anisotropy, sites per subunit) it was 1.1 ± 0.8. Also, in the assay on SdKefQCTD Q419K mutant, the “binding to Q419K mutant” value is on record as “unable to bind”.

With `CCN1C(=O)CC(SCC(NC(=O)CCC(N)C(=O)O)C(=O)NCC(=O)O)C1=O` (stereo not shown) [ESG, N-ethylsuccinimido-S-glutathione, reference compound], the Kd came out at 23 ± 4 µM at SdKefQCTD [1] (setting [8]) and 12 ± 3 µM on SdKefQCTD [2] (setting [9]). Further, the figures for the “no. of sites (n)” value at SdKefQCTD [1] (ITC) and on SdKefQCTD [2] (emission peak) were 0.38 ± 0.05 and 0.7 ± 0.2, respectively. In addition, at SdKefQCTD [3], the “DNGSHbound:DNGSHligand ratio” value was “high FB:FL ratios”.

In the case of `N[C@@H](CCC(=O)N[C@@H](CS)C(=O)NCC(=O)O)C(=O)O` [GSH, glutathione, reference compound], the “ITC signal on titration” value at SdKefQCTD [1] (could not be analyzed, data not shown) is given as “Only small signals”. The compound further yielded a dissociation constant (Kd) on SdKefQCTD [2] of 900 ± 200 µM. For the same compound, at SdKefQCTD [2] (emission peak), the “no. of sites (n)” value is given as 0.83 ± 0.04. Further, the “DNGSHbound:DNGSHligand ratio” value at SdKefQCTD [3] is “low FB:FL ratios”. Also, the “change in protein melting temperature (ΔTm)” value on SdKefQCTD [4] was “negligible change”.

As to `CCN1C(=O)C=CC1=O` [NEM, N-ethylmaleimide], in the assay on SdKef (SdKef expressed in E. coli strain lacking KefFC and KefGB (MJF645), after addition of electrophile), the “rate constant for K+ efflux” value is given as “high rate constant for K^+ efflux”.

Consider “SdKefQCTD (soluble construct of the cytosolic regulatory domain of Kef from Shewanella denitrificans OS217, including the Q-linker) (domain or fragment)”, for which the stoichiometry N (usually a count of units in the complex or per binding partner) in assay [7] was found to be 2 subunits.
